# Data from patent publication US8829004B2, “Method for inducing tumor apoptosis by increasing nitric oxide levels” (Universitätsklinikum Freiburg, priority 2006, dated 2014).
# What was measured:
# [1] = tested on: SKNMC cells (human neuroblastoma); experiment: Apoptosis induction in SKNMC cells with ROS pathway inhibitors (FIG. 5); type: cell-based
# Procedure: FIG. 5 discloses experimental data obtained with 25 000 SKNMC cells (human neuroblastoma) in 48 well tissue culture clusters (without addition of TGF-beta). […] Control assays contained the respective compound in the absence of any inhibitors. Parallel assays contained either 200 μM of the NADPH (nicotinamide adenine dinucleotide phosphate) oxidase inhibitor AEBSF, 10 μM of the nNOS-specific NO synthetase inhibitor 3-Br-7-Ni (3-bromo-7-nitroindazole), 2 mM of the singlet oxygen scavenger histidine or 50 mM of the HOCl scavenger taurine. The percentage of apoptotic cells was determined at the indicated time points.
# For all inducers, apoptosis induction was dependent on superoxide anion generation and NO synthesis, as it was blocked by AEBSF and 3-Br-7-Ni respectively. In contrast to the NO/peroxynitrite pathway, the HOCl pathway played no role for apoptosis induction in this particular line. Apoptosis induction by all azoles tested depended on singlet oxygen action, as it was blocked by histidine.
# L929 cells = experiment: Apoptosis induction by azoles in L929 cells with TGF-beta; type: cell-based, murine; conditions: 2 mM histidine; 3-AT at 25 mM
# Procedure: FIG. 3 discloses experimental data obtained with 25000 L929 cells in 48 well tissue culture clusters in the presence of 20 ng/ml TGF-beta. Itraconazole was added at the indicated concentrations, in the presence or absence of 2 mM histidine (singlet oxygen scavenger). The percentage of apoptotic cells was determined after 37 hrs.
# The dashed lines indicate the percentage of apoptotic cells obtained when the tumor cell catalase was blocked by 25 mM […] (3-AT).
# FIG. 4 discloses experimental data obtained with 25000 L929 cells in 48 well tissue culture clusters in the presence of 20 ng/ml TGF-beta. “No addition” represents the control without addition of compound. […] The percentage of apoptotic cells was determined after 63 hrs.
# The first step comprises contacting tumor cells in media comprising TGF-beta with the test compounds to be analyzed for their properties of apoptosis induction. After a specific incubation time, the extent of apoptosis induction is determined, e.g. after two days. Methods for determining the apoptosis in cells in a quantitative manner are well known in the art and are for example described by Jürgensmeier et al. (Cancer Research 1994; 54:393-398). […] These features of apoptotic cells can be determined through phase contrast microscopy or after chromatin staining with fluorescent dyes, followed by fluorescence microscopy. […]
# SKNMC = experiment: Inhibitor effect on inducer-mediated apoptosis, SKNMC cells (Example 6); type: cell-based, human
# Procedure: (§1) The effect of a singlet oxygen scavenger, a NO synthase inhibitor and a HOCl scavenger on either the destruction of the catalase or the HOCl pathway was determined by the following experiment. 12500 SISO cells in 100 μl media in 96 tissue wells were treated with taxol (20 μg/ml) in the presence of TGF-β (20 ng/ml). In addition, the singlet oxygen scavenger, the NO synthase inhibitor or the HOCl scavenger was added at different points of time in the experiments.
# (§2) Further experiments have been carried out using different types of cells and different apoptosis inhibitors. The experimental setup was analogue to the examples 5a-5c and the late addition of the inhibitor (histidine, L-NAME, 3-Br-7-Nitroindazole or taurine) was performed 1 hour after beginning of the experiment. The concentrations of taxol, histidine, L-NAME and taurine were the same as in the experiments 5a-5c. 3-Br-7-Nitroindazole was added at a concentration of 10 μm. The apoptosis inducing compounds were added at increasing concentrations (0-5 mM arginine, 0-20 μg/ml taxol, 0-20 μg/ml artemisine, 0-20 μg/ml xanthohumol, 0-20 μg/ml itraconazole, 0-10 μg/ml miconazole, 0-20 μg/ml antibody against Apo/FAS receptor). In each of the experiments, the effect of the inhibitors on the singlet oxygen mediated catalase destruction and/or the subsequent ROS signaling could be observed. […]
# [2] = tested on: SISO cells (human cervix carcinoma); experiment: Apoptosis induction by taxol in SISO cells, 48 well (FIGS. 6-8, Example 4); type: cell-based; conditions: for synergistic effect with taxol on apoptosis: 10 mM arginine, 200 μM Nor-NOHA or both, suboptimal taxol, 20 ng/ml TGF
# Procedure: FIG. 6 discloses experimental data obtained with 25000 SISO cells (human cervix carcinoma) cultured in 48 well tissue culture clusters in the presence of the indicated concentrations of the established chemotherapeutic compound taxol. The assays contained 2 mM Histidine or not.
# FIG. 7 discloses experimental data obtained with 25000 SISO cells (human cervix carcinoma) cultured in 48 well tissue culture clusters either in the absence of any inducer (“no addition”) or in the presence of 10 μg/ml taxol (“TAX”) without further additions or with the addition of 100 μM of the NADPH oxidase inhibitor AEBSF, 100 U/ml of the superoxide anion scavenger SOD (Manganese-containing SOD from E. coli), 100 U/ml catalase, 150 μM of the peroxidase inhibitor ABH (aminobenzoylhydrazide), 50 mM of the HOCl scavenger taurine, 1 mM of the hydroxyl radical scavenger mannitol, 2.4 mM of the NO synthase inhibitor L-NAME, and 25 μM of the inhibitors for caspase 3, −9 and 8.
# FIG. 8 discloses experimental data obtained with 25 000 SISO cells in 48 well tissue culture clusters in the presence of 20 ng/ml TGF and the indicated concentrations of taxol. Where indicated, taxol containing assays received 10 mM arginine (10 ARG), 200 μM Nor-NOHA or a combination of both.
# Human SISO cells are used in a 48-well plate (Costar) in 200 μl media with a cell concentration of 25,000. The media comprises 20 ng/ml TGF-beta and furthermore Taxol subjected for testing in a concentration ranging from 1.25-20 ng/ml. For comparison, control experiments are performed without Taxol which is tested for apoptosis induction.
# Step 2 is carried out with the same conditions as specified for step 1, whereas all cells are contacted with taxol. In addition, histidine (2 mM) is added to the cells, whereas also experiments without histidine are performed as control experiments.
# In a further experiment using the conditions of step 1, human tumor cells (SISO) are contacted with taxol (10 μg/ml) and 100 μM of the NADPH oxidase inhibitor AEBSF, 100 U/ml of the superoxide anion scavenger SOD (Manganese-containing SOD from E. coli), 100 U/ml catalase, 150 μM of the peroxidase inhibitor ABH (aminobenzoylhydrazide), 50 mM of the HOCl scavenger taurine, 1 mM of the hydroxyl radical scavenger mannitol or 2.4 mM of the NO synthase inhibitor L-NAME.
# Gumbus = experiment: Inhibitor effect on inducer-mediated apoptosis, Gumbus cells (Example 6); type: cell-based
# Procedure: as §1
# (§3) Further experiments have been carried out using different types of cells and different apoptosis inhibitors. The experimental setup was analogue to the examples 5a-5c and the late addition of the inhibitor (histidine, L-NAME, 3-Br-7-Nitroindazole or taurine) was performed 1 hour after beginning of the experiment. The concentrations of taxol, histidine, L-NAME and taurine were the same as in the experiments 5a-5c. 3-Br-7-Nitroindazole was added at a concentration of 10 μm. The apoptosis inducing compounds were added at increasing concentrations (0-5 mM arginine, 0-20 μg/ml taxol, 0-20 μg/ml artemisine, 0-20 μg/ml xanthohumol, 0-20 μg/ml itraconazole, 0-10 μg/ml miconazole, 0-20 μg/ml antibody against Apo/FAS receptor). In each of the experiments, the effect of the inhibitors on the singlet oxygen mediated catalase destruction and/or the subsequent ROS signaling could be observed. […] Addition of histidine at the beginning of the experiment caused inhibition in all experiments and for all cell lines shown. […] The experiments using neuroblastoma cells only display apoptosis mediated by the NO pathway as these cells only release small amounts of peroxidase. Therefore, addition of the nNOS-specific inhibitor 3-Br-7NI caused inhibition of apoptosis, irrespective of the time of addition. […] Addition of taurine in the presence of higher concentrations of inducers inhibited apoptosis irrespective of the time of addition (zero versus one hour), as HOCl is only involved in intercellular signaling, but not in catalase destruction.
# MKN-45 = experiment: Inhibitor effect on inducer-mediated apoptosis, MKN-45 cells (Example 6); type: cell-based
# Procedure: as §1, §3
# [3] = tested on: SISO cells (human cervix carcinoma); experiment: Apoptosis induction by taxol in SISO cells, 48 well (FIGS. 6-8, Example 4); type: cell-based
# [4] = tested on: normal diploid fibroblasts; experiment: Toxicity test on normal diploid fibroblasts (step 3); type: cell-based; conditions: conditions of step 1, two days; data not shown
# Procedure: The method for identifying suitable compounds can additionally comprise a third step. The third step comprises contacting the identified compounds from step 2 with normal diploid fibroblasts in order to determine whether these compounds induce apoptosis or other toxic reactions and are therefore not suitable for a medical use.
# The experimental conditions are the same as for step 1, whereas the cells used for step 3 are normal diploid fibroblasts. Control experiments are carried out without the test compound, and the cells are incubated for two days.
# SISO cells = experiment: Timed inhibitor addition on inducer-mediated apoptosis in SISO cells, 96 well (Examples 5, 6); type: cell-based, human
# Procedure: FIG. 9 discloses experimental data obtained with 12500 SISO cells in 96 well tissue culture clusters in the presence of 20 ng/ml TGF and the indicated concentrations of taxol. Furthermore, histidine was added at different time points in the experiment.
# FIG. 11 refers to a similar experiment as described with respect to FIG. 8 or 9, whereas histidine/L-NAME was substituted by taurine (50 mM, scavenger of HOCl).
# as §1
# The concentrations of taxol, histidine, L-NAME and taurine were the same as in the experiments 5a-5c. 3-Br-7-Nitroindazole was added at a concentration of 10 μm. The apoptosis inducing compounds were added at increasing concentrations (0-5 mM arginine, 0-20 μg/ml taxol, 0-20 μg/ml artemisine, 0-20 μg/ml xanthohumol, 0-20 μg/ml itraconazole, 0-10 μg/ml miconazole, 0-20 μg/ml antibody against Apo/FAS receptor).
# SHEP = experiment: Inhibitor effect on inducer-mediated apoptosis, SHEP cells (Example 6); type: cell-based, human
# Procedure: as §1, §2
# [5] = SISO, inducer at increasing concentrations
compound,measurement,setting,value
"Nc1nc[nH]n1 [3-AT, 3-aminotriazole]",effect of histidine on induced apoptosis (singlet oxygen dependence),[1]; 2 mM histidine,singlet oxygen is not required
same,apoptosis induction (percentage of apoptotic cells),"[1]; 12.5 or 25 μg/ml azole, 75 mM 3-AT, without TGF-beta",induced apoptosis in the tumor cells to a significant extent
same,effect of histidine on induced apoptosis,L929 cells,not blocked by histidine
N=C(N)NCCC[C@H](N)C(=O)O [Arginine],apoptosis inhibitory effect of Histidine,SKNMC,+
same,apoptosis inhibitory effect of 3-Br-7-NI,SKNMC; 3-Br-7-Nitroindazole 10 μm,+
same,synergistic effect with taxol on apoptosis,[2],synergistic effect
same,apoptosis inhibitory effect of Histidine,Gumbus,+
same,apoptosis inhibitory effect of L-NAME,Gumbus,+
same,apoptosis inhibitory effect of Taurine,Gumbus,+
C[C@@H]1CC[C@H]2[C@@H](C)C(=O)O[C@@H]3O[C@@]4(C)CC[C@@H]1[C@]32OO4 [Artemisinine],apoptosis inhibitory effect of Histidine,MKN-45,+
same,apoptosis inhibitory effect of L-NAME,MKN-45,+
same,apoptosis inhibitory effect of Taurine,MKN-45,+
CCC(C)n1ncn(-c2ccc(N3CCN(c4ccc(OCC5COC(Cn6cncn6)(c6ccc(Cl)cc6Cl)O5)cc4)CC3)cc2)c1=O (centres unmarked) [Itraconazole],apoptosis inhibitory effect of Histidine,Gumbus,+
same,apoptosis inhibitory effect of L-NAME,Gumbus,+
same,apoptosis inhibitory effect of Taurine,Gumbus,+
Clc1ccc(COC(Cn2ccnc2)c2ccc(Cl)cc2Cl)c(Cl)c1 (centres unmarked) [Miconazole],apoptosis inhibitory effect of Histidine,Gumbus,+
same,apoptosis inhibitory effect of L-NAME,Gumbus,+
same,apoptosis inhibitory effect of Taurine,Gumbus,+
"N=C(NO)NCC[C@H](N)C(=O)O [Nor-NOHA, N^omega-hydroxy-nor-L-arginine]",synergistic effect with taxol on apoptosis,[2],synergistic effect
CC(=O)O[C@H]1C(=O)[C@@]2(C)[C@H]([C@H](OC(=O)c3ccccc3)[C@]3(O)C[C@H](OC(=O)[C@H](O)[C@@H](NC(=O)c4ccccc4)c4ccccc4)C(C)=C1C3(C)C)[C@]1(OC(C)=O)CO[C@@H]1C[C@@H]2O [Taxol],signaling pathway used at low taxol concentration,"[3]; 2 μg/ml taxol, data not shown",the NO pathway became more prominent
same,apoptosis induction in SISO cells with siRNA knockdown of superoxide anion generation,[3]; siRNA-based genetic knockdown,did not lead to taxol-mediated apoptosis induction
same,apoptosis induction in diploid fibroblasts,[4],did not induce significant apoptosis
same,effect of histidine added at the beginning on taxol-induced apoptosis,SISO cells; 2 mM histidine at start,inhibits the tumor apoptosis to a great extend
same,effect of late addition of L-NAME on taxol-induced apoptosis,SISO cells; 2.4 mM L-NAME 5 hours after beginning,only shows some inhibition at low taxol concentrations
same,effect of early addition of L-NAME on taxol-induced apoptosis,SISO cells; 2.4 mM L-NAME at start,inhibits tumor apoptosis
same,effect of taurine on taxol-induced apoptosis,SISO cells; 50 mM taurine at start or after 5 hours,only inhibits tumor apoptosis at high taxol concentrations
same,apoptosis inhibitory effect of Histidine,SISO cells; [5],+
same,apoptosis inhibitory effect of L-NAME,SISO cells; [5],+
same,apoptosis inhibitory effect of Taurine,SISO cells; [5],+
same,effect of late addition of histidine on taxol-induced apoptosis,SISO cells; histidine 5 hours after beginning,only shows a small effect of apoptosis inhibition
same,effect of histidine on taxol-induced apoptosis,[2]; 2 mM histidine,inhibited by histidine at all concentrations
same,apoptosis induction,"[2]; Taxol 1.25-20 ng/ml, 20 ng/ml TGF-beta",apoptosis already occurs after 12.5 hours at all concentrations
same,caspase dependence of apoptosis induction,"[2]; taxol 10 μg/ml, 25 μM inhibitors for caspase 3, -9 and 8",mediated by caspases 9 and 3 (mitochondrial pathway) and is independent of the death receptor specific caspase 8
same,"effect of inhibitors of superoxide anion generation (AEBSF, SOD) on taxol-mediated apoptosis","[2]; taxol 10 μg/ml, 100 μM AEBSF, 100 U/ml SOD",inhibited
same,effect of inhibitor of the NO pathway (L-NAME) on taxol-mediated apoptosis,"[2]; taxol 10 μg/ml, 2.4 mM L-NAME",not by the inhibitor of the NO pathway
same,"effect of inhibitors of the HOCl pathway (catalase, ABH, taurine, mannitol) on taxol-mediated apoptosis","[2]; taxol 10 μg/ml, 100 U/ml catalase, 150 μM ABH, 50 mM taurine, 1 mM mannitol",inhibited
same,apoptosis inhibitory effect of Histidine,SHEP,+
same,apoptosis inhibitory effect of 3-Br-7-NI,SHEP; 3-Br-7-Nitroindazole 10 μm,+
same,apoptosis inhibitory effect of Histidine,Gumbus,+
same,apoptosis inhibitory effect of L-NAME,Gumbus,+
same,apoptosis inhibitory effect of Taurine,Gumbus,+
COc1cc(O)c(CC=C(C)C)c(O)c1C(=O)/C=C/c1ccc(O)cc1 [Xanthohumol],apoptosis inhibitory effect of Histidine,Gumbus,+
same,apoptosis inhibitory effect of L-NAME,Gumbus,+
same,apoptosis inhibitory effect of Taurine,Gumbus,+
